Earlier results in patent JP2021073187A, “即効型インスリン組成物” (Eli Lilly and Co, priority 2014, dated 2021).

For “インスリンリスプロ: drug substance of HUMALOG, CAS 133107-64-9; A chain SEQ ID 1, B chain SEQ ID 3 [28B−L−リジン−29B−L−プロリン ヒトインスリン]”, the “Potency relative to human insulin” value (on a molar basis) is given as “等しい効力” and the “Effect after subcutaneous injection relative to injected soluble human insulin” value (subcutaneous injection) is given as “迅速で短い持続時間”.
